Here are results for 27 compounds from patent US20230406864A1, “7-AZOLE SUBSTITUTED 2-AMINOQUINAZOLINE INHIBITORS OF HPK1” (MERCK SHARP & DOHME LLC, priority 2020, published 2023).

SMILES strings stand for the structures.

The assay has as its target T1, Human HPK1, catalytic domain (Homo sapiens, UniProt Q92918).
T1 construct: purchased Cama (so in the source)
T1 sequence (Q92918 1-346): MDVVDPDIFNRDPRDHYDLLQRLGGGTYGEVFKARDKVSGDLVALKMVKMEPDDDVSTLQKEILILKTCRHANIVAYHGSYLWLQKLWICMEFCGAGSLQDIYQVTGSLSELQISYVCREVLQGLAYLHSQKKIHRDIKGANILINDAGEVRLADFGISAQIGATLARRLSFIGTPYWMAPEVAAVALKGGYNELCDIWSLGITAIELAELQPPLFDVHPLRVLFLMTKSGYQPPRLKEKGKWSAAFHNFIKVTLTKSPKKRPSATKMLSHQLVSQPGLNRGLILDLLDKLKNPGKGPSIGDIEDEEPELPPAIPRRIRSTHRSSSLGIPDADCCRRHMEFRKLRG
Nature of the assay: HPK1-SLP76 TR-FRET assay. In kind it is biochemical. Particulars: HPK1 kinase domain 0.075 nM; full length SLP-76 10 nM; ATP 10 μM; 30 min preincubation; 60 min reaction; room temperature.

Consider `Cc1c(-c2cc3nc(Nc4cnn(CC(C)(C)O)c4Cl)ncc3c(N)c2F)cnc2c1NCCO2` [Example 2-18, 1-(4-{[5-amino-6-fluoro-7-(8-methyl-2,3-dihydro-1H-pyrido[2,3-b][1,4]oxazin-7-yl)quinazolin-2-yl]amino}-5-chloro-1H-pyrazol-1-yl)-2-methypropan-2-ol], for which the midpoint of inhibition, the IC50, lay at 2 nM. In the case of `Cc1c(-c2cc3nc(Nc4cc5n(n4)CCN(C(C)C)C(=O)C5)ncc3c(N)c2F)cnc2c1NCCO2` [Example 2-20, 2-{[5-amino-6-fluoro-7-(8-methyl-2,3-dihydro-1H-pyrido[2,3-b][1,4]oxazin-7-yl)quinazolin-2-yl]amino}-6-(propan-2-yl)-7,8-dihydro-4H-pyrazolo[1,5-d][1,4]diazepin-5(6H)-one], the IC50 (in general, the midpoint of a concentration-inhibition curve) was 0.063 nM. Then `CCn1cc(Nc2ncc3c(N)c(F)c(-c4cnc5c(c4C)NCCO5)cc3n2)cn1` [Example 2-22, N~2~-(1-ethyl-1H-pyrazol-4-yl)-6-fluoro-7-(8-methyl-2,3-dihydro-1H-pyrido[2,3-b][1,4]oxazin-7-yl)quinazoline-2,5-diamine], with 0.076 nM; and `Cc1c(-c2cc3nc(Nc4cnn(C5CCC5)c4)ncc3c(N)c2F)cnc2c1NCCO2` [Example 2-23, N~2~-(1-cyclobutyl-1H-pyrazol-4-yl)-6-fluoro-7-(8-methyl-2,3-dihydro-1H-pyrido[2,3-b][1,4]oxazin-7-yl)quinazoline-2,5-diamine], with 0.19 nM. In turn, `Cc1c(-c2cc3nc(Nc4cnn(CC(C)(C)O)c4)ncc3c(N)c2F)cnc2c1NCCO2` [Example 2-24, 1-(4-{[5-amino-6-fluoro-7-(8-methyl-2,3-dihydro-1H-pyrido[2,3-b][1,4]oxazin-7-yl)quinazolin-2-yl]amino}-1H-pyrazol-1-yl)-2-methylpropan-2-ol] yielded an IC50 of 1.1 nM.

For the compound `Cc1c(-c2cc3nc(Nc4cnn(C5CC5)c4Cl)ncc3c(N)c2F)cnc2c1NCCO2` [Example 2-25, N~2~-(5-chloro-1-cyclopropyl-1H-pyrazol-4-yl)-6-fluoro-7-(8-methyl-2,3-dihydro-1H-pyrido[2,3-b][1,4]oxazin-7-yl)quinazoline-2,5-diamine], half-maximal inhibition (IC50) was put at 0.49 nM. Compound `Cc1c(-c2cc3nc(Nc4cnn(C5(C)CC5)c4Cl)ncc3c(N)c2F)cnc2c1NCCO2` [Example 2-26, N~2~-[5-chloro-1-(1-methylcyclopropyl)-1H-pyrazol-4-yl]-6-fluoro-7-(8-methyl-2,3-dihydro-1H-pyrido[2,3-b][1,4]oxazin-7-yl)quinazoline-2,5-diamine] had an IC50 of 0.38 nM. The result for `CCn1cc(Nc2ncc3c(N)c(F)c(-c4cnc5c(c4C)NCCO5)cc3n2)c(C)n1` [Example 2-27, N~2~-(1-ethyl-3-methyl-1H-pyrazol-4-yl)-6-fluoro-7-(8-methyl-2,3-dihydro-1H-pyrido[2,3-b][1,4]oxazin-7-yl)quinazoline-2,5-diamine] reads 1 nM; that for `CNC(=O)C12CC(n3cc(Nc4ncc5c(N)c(F)c(-c6cnc7c(c6C)NCCO7)cc5n4)cn3)(C1)C2` [Example 2-28, 3-(4-{[5-amino-6-fluoro-7-(8-methyl-2,3-dihydro-1H-pyrido[2,3-b][1,4]oxazin-7-yl)quinazolin-2-yl]amino}-1H-pyrazol-1-yl)-N-methylbicyclo[1.1.1]pentane-1-carboxamide], 0.094 nM.

On to `Cc1c(-c2cc3nc(Nc4cnn(C(F)F)c4C)ncc3c(N)c2F)cnc2c1NCCO2` [Example 2-29, N~2~-[1-(difluoromethyl)-5-methyl-1H-pyrazol-4-yl]-6-fluoro-7-(8-methyl-2,3-dihydro-1H-pyrido[2,3-b][1,4]oxazin-7-yl)quinazoline-2,5-diamine], for which 0.1 nM corresponded to half-maximal inhibition (IC50).

In turn, `Cc1c(-c2cc3nc(Nc4cnn(C)c4C)ncc3c(N)c2F)cnc2c1NCCO2` [Example 2-30, N~2~-(1,5-dimethyl-1H-pyrazol-4-yl)-6-fluoro-7-(8-methyl-2,3-dihydro-1H-pyrido[2,3-b][1,4]oxazin-7-yl)quinazoline-2,5-diamine] came in with an IC50 of 0.051 nM. Then `Cc1nn(CC(F)F)cc1Nc1ncc2c(N)c(F)c(-c3cnc4c(c3C)NCCO4)cc2n1` [Example 2-31, N~2~-[1-(2,2-difluoroethyl)-3-methyl-1H-pyrazol-4-yl]-6-fluoro-7-(8-methyl-2,3-dihydro-1H-pyrido[2,3-b][1,4]oxazin-7-yl)quinazoline-2,5-diamine], with 0.2 nM.

In turn, `Cc1c(-c2cc3nc(Nc4cnn(CC(F)F)c4)ncc3c(N)c2F)cnc2c1NCCO2` [Example 2-32, N~2~-[1-(2,2-difluoroethyl)-1H-pyrazol-4-yl]-6-fluoro-7-(8-methyl-2,3-dihydro-1H-pyrido[2,3-b][1,4]oxazin-7-yl)quinazoline-2,5-diamine] returned an IC50 of 0.054 nM.

`Cc1nn(C(C)C)cc1Nc1ncc2c(N)c(F)c(-c3cnc4c(c3C)NCCO4)cc2n1` [Example 2-33, 6-fluoro-7-(8-methyl-2,3-dihydro-1H-pyrido[2,3-b][1,4]oxazin-7-yl)-N~2~-[3-methyl-1-(propan-2-yl)-1H-pyrazol-4-yl]quinazoline-2,5-diamine]: the IC50 is 3.5 nM. This IC50 is about 65-fold higher than that of the compound before. The result for `Cc1nn(C)cc1Nc1ncc2c(N)c(F)c(-c3cnc4c(c3C)NCCO4)cc2n1` [Example 2-34, N~2~-(1,3-dimethyl-1H-pyrazol-4-yl)-6-fluoro-7-(8-methyl-2,3-dihydro-1H-pyrido[2,3-b][1,4]oxazin-7-yl)quinazoline-2,5-diamine] reads 0.058 nM.

The compound `Cc1c(-c2cc3nc(Nc4cnn5c4CCC5)ncc3c(N)c2F)cnc2c1NCCO2` [Example 2-35, N~2~-(5,6-dihydro-4H-pyrrolo[1,2-b]pyrazol-3-yl)-6-fluoro-7-(8-methyl-2,3-dihydro-1H-pyrido[2,3-b][1,4]oxazin-7-yl)quinazoline-2,5-diamine] had a concentration for half-maximal inhibition (IC50) of 0.051 nM.

`Cc1nsc(Nc2ncc3c(N)c(F)c(-c4cnc5c(c4C)NCCO5)cc3n2)c1Cl` [Example 2-36, N~2~-(4-chloro-3-methyl-1,2-thiazol-5-yl)-6-fluoro-7-(8-methyl-2,3-dihydro-1H-pyrido[2,3-b][1,4]oxazin-7-yl)quinazoline-2,5-diamine] came in with an IC50 of 0.28 nM. Then `Cc1cnsc1Nc1ncc2c(N)c(F)c(-c3cnc4c(c3C)NCCO4)cc2n1` [Example 2-37, 6-fluoro-7-(8-methyl-2,3-dihydro-1H-pyrido[2,3-b][1,4]oxazin-7-yl)-N~2~-(4-methyl-1,2-thiazol-5-yl)quinazoline-2,5-diamine], with 0.071 nM; and `CCn1ncc(Nc2ncc3c(N)c(F)c(-c4cnc5c(c4C)NCCO5)cc3n2)c1F` [Example 2-38, N~2~-(1-ethyl-5-fluoro-1H-pyrazol-4-yl)-6-fluoro-7-(8-methyl-2,3-dihydro-1H-pyrido[2,3-b][1,4]oxazin-7-yl)quinazoline-2,5-diamine], with 0.57 nM; and `Cc1c(-c2cc3nc(Nc4cnn(C5COC5)c4)ncc3c(N)c2F)cnc2c1NCCO2` [Example 2-39, 6-fluoro-7-(8-methyl-2,3-dihydro-1H-pyrido[2,3-b][1,4]oxazin-7-yl)-N~2~-[1-(oxetan-3-yl)-1H-pyrazol-4-yl]quinazoline-2,5-diamine], with 0.051 nM.

For the compound `CNC(=O)Cn1cc(Nc2ncc3c(N)c(F)c(-c4cnc5c(c4C)NCCO5)cc3n2)c(C)n1` [Example 2-40, 2-(4-{[5-amino-6-fluoro-7-(8-methyl-2,3-dihydro-1H-pyrido[2,3-b][1,4]oxazin-7-yl)quinazolin-2-yl]amino}-3-methyl-1H-pyrazol-1-yl)-N-methylacetamide], the midpoint of inhibition, the IC50, lay at 0.27 nM. Then `CNC(=O)C(C)(C)n1cc(Nc2ncc3c(N)c(F)c(-c4cnc5c(c4C)NCCO5)cc3n2)cn1` [Example 2-41, 2-(4-{[5-amino-6-fluoro-7-(8-methyl-2,3-dihydro-1H-pyrido[2,3-b][1,4]oxazin-7-yl)quinazolin-2-yl]amino}-1H-pyrazol-1-yl)-N,2-dimethylpropanamide], with 0.84 nM. The result for `Cc1c(-c2cc3nc(Nc4cnn(CS(C)(=O)=O)c4)ncc3c(N)c2F)cnc2c1NCCO2` [Example 2-42, 6-fluoro-7-(8-methyl-2,3-dihydro-1H-pyrido[2,3-b][1,4]oxazin-7-yl)-N2-(1-((methylsulfonyl)methyl)-1H-pyrazol-4-y)quinazoline-2,5-diamine] reads 0.13 nM. `Cc1c(-c2c(F)c(N)c3cnc(Nc4cnn(C5(C)CC5)c4)nc3c2Cl)cnc2c1NCCO2` [Example 2-43, (+ and −)-8-chloro-6-fluoro-N~2~-[1-(1-methylcyclopropyl)-1H-pyrazol-4-yl]-7-(8-methyl-2,3-dihydro-1H-pyrido[2,3-b][1,4]oxazin-7-yl)quinazoline-2,5-diamine]: it took 0.14 nM to reach half-maximal inhibition (IC50). In turn, `Cc1c(-c2cc3nc(Nc4cnn(C5CCN(C)CC5)c4)ncc3c(N)c2F)cnc2c1NCCO2` [Example 2-44, 6-fluoro-7-(8-methyl-2,3-dihydro-1H-pyrido[2,3-b][1,4]oxazin-7-yl)-N~2~-[1-(1-methylpiperidin-4-yl)-1H-pyrazol-4-yl]quinazoline-2,5-diamine] yielded a half-inhibitory concentration (IC50) of 0.045 nM.

`Cc1c(-c2cc3nc(Nc4cnn(C5CC5)c4C)ncc3c(N)c2F)cnc2c1NCCO2` [Example 2-45, N~2~-(1-cyclopropyl-5-methyl-1H-pyrazol-4-yl)-6-fluoro-7-(8-methyl-2,3-dihydro-1H-pyrido[2,3-b][1,4]oxazin-7-yl)quinazoline-2,5-diamine] showed an IC50 of 0.18 nM.

`Cc1c(-c2cc3nc(Nc4cnn(C56CC(C(C)(C)O)(C5)C6)c4)ncc3c(N)c2F)cnc2c1NCCO2` [Example 2-46, 2-[3-(4-{[5-amino-6-fluoro-7-(8-methyl-2,3-dihydro-1H-pyrido[2,3-b][1,4]oxazin-7-yl)quinazolin-2-yl]amino}-1H-pyrazol-1-yl)bicyclo[1.1.1]pentan-1-yl]propan-2-ol] yielded a 50% inhibitory concentration (IC50) of 0.051 nM.
